Assay results published in the supplement of paper PMC10307832.

Assays:
Experiment in all cases: relative viability (nuclei count vs DMSO), 5 days (fraction); higher = more cells survive
[1] = compound: COc1cc(Nc2c(C#N)cnc3cc(OCCCN4CCN(C)CC4)c(OC)cc23)c(Cl)cc1Cl [Bosutinib] + CS(=O)(=O)N1CCN(Cc2cc3nc(-c4cccc5[nH]ncc45)nc(N4CCOCC4)c3s2)CC1 [Pictilisib] (partner 1 µM)
How it was run: (§1)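 A single step with final 0.05% Triton X-100, 1% formaldehyde and 1 ug/ml Hoechst fixed the cells and stained nuclei 5 days after treatment. Lung cancer cell lines in 1536-well plates had been treated by pin tool the day after seeding with one drug alone or a fixed anchor-drug dose plus five library-drug doses (not always all listed) in √10 steps, and nuclei were counted on 4× images. Relative viability is the ratio of nuclei in treated wells to nuclei in vehicle wells, taken as the median of duplicate plates.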

[2] = compound: COc1cc(Nc2c(C#N)cnc3cc(OCCCN4CCN(C)CC4)c(OC)cc23)c(Cl)cc1Cl [Bosutinib] + C[C@]1(O)C[C@@H](c2nc(-c3ccc4ccc(-c5ccccc5)nc4c3)c3c(N)nccn32)C1 [Linsitinib] (partner 1 µM)
How it was run: as §1

[3] = compound: COc1cc(Nc2c(C#N)cnc3cc(OCCCN4CCN(C)CC4)c(OC)cc23)c(Cl)cc1Cl [Bosutinib] + CCNC(=O)c1noc(-c2cc(C(C)C)c(O)cc2O)c1-c1ccc(CN2CCOCC2)cc1 [Luminespib] (partner 0.01 µM)
How it was run: as §1

[4] = compound: COc1cc(Nc2c(C#N)cnc3cc(OCCCN4CCN(C)CC4)c(OC)cc23)c(Cl)cc1Cl [Bosutinib] + N=C(N)NC(=N)NCCc1ccccc1 [Phenformin] (partner 250 µM)
How it was run: as §1

[5] = compound: COc1cc(Nc2c(C#N)cnc3cc(OCCCN4CCN(C)CC4)c(OC)cc23)c(Cl)cc1Cl [Bosutinib] + C[C@@H](Oc1cc(-c2cnn(C3CCNCC3)c2)cnc1N)c1c(Cl)ccc(F)c1Cl [Crizotinib] (partner 1 µM)
How it was run: as §1

| Cell Line | relative viability ([1]; first compound 0.01 µM) | relative viability ([1]; first compound 0.03162 µM) | relative viability ([1]; first compound 0.1 µM) | relative viability ([1]; first compound 1 µM) | relative viability ([2]; first compound 0.01 µM) | relative viability ([2]; first compound 0.03162 µM) | relative viability ([2]; first compound 0.1 µM) | relative viability ([2]; first compound 1 µM) | relative viability ([3]; first compound 0.01 µM) | relative viability ([3]; first compound 0.03162 µM) | relative viability ([3]; first compound 0.1 µM) | relative viability ([3]; first compound 1 µM) | relative viability ([4]; first compound 0.01 µM) | relative viability ([4]; first compound 0.03162 µM) | relative viability ([4]; first compound 0.1 µM) | relative viability ([4]; first compound 1 µM) | relative viability ([5]; first compound 0.01 µM) | relative viability ([5]; first compound 0.03162 µM) | relative viability ([5]; first compound 0.1 µM) | relative viability ([5]; first compound 1 µM) |
| --- | --- | --- | --- | --- | --- | --- | --- | --- | --- | --- | --- | --- | --- | --- | --- | --- | --- | --- | --- | --- |
| NCI-H2023 | 0.25 | 0.235 | 0.272 | 0.233 | 0.763 | 0.743 | 0.62 | 0.402 | 0.802 | 0.852 | 0.704 | 0.579 | 0.415 | 0.4 | 0.376 | 0.295 | 0.538 | 0.613 | 0.511 | 0.366 |
| CAL-12T | 0.31 | 0.496 | 0.46 | 0.409 | 0.739 | 0.932 | 0.891 | 0.71 | 0.516 | 0.587 | 0.335 | 0.204 | 0.567 | 0.584 | 0.52 | 0.382 | 0.543 | 0.7 | 0.638 | 0.362 |
| NCI-H2085 | 0.441 | 0.45 | 0.425 | 0.489 | 0.778 | 0.865 | 0.835 | 1 | 0.393 | 0.466 | 0.492 | 0.44 | 0.825 | 0.705 | 0.652 | 0.515 | 0.799 | 0.685 | 0.826 | 0.874 |
| NCI-H650 | 0.913 | 0.878 | 0.914 | 0.997 | 1.17 | 0.846 | 0.985 | 1.21 | 0.838 | 0.713 | 0.744 | 0.898 | 0.447 | 0.45 | 0.472 | 0.482 | 0.791 | 0.644 | 0.73 | 0.808 |
| LCLC-97TM1 | 0.182 | 0.221 | 0.254 | 0.267 | 0.213 | 0.216 | 0.209 | 0.175 | 0.871 | 0.744 | 0.74 | 0.746 | 0.452 | 0.434 | 0.541 | 0.411 | 0.369 | 0.494 | 0.443 | 0.414 |
| NCI-H2126 | 0.496 | 0.517 | 0.522 | 0.506 | 0.645 | 0.717 | 0.687 | 0.628 | 0.848 | 0.828 | 0.874 | 0.725 | 0.519 | 0.567 | 0.544 | 0.568 | 0.934 | 1.02 | 0.987 | 0.957 |
| 201T | 0.685 | 0.653 | 0.66 | 0.615 | 1.08 | 0.987 | 1.02 | 0.966 | 1.01 | 1.06 | 1.02 | 0.848 | 0.444 | 0.421 | 0.449 | 0.425 | 0.982 | 1.06 | 1.1 | 0.945 |
| NCI-H1915 | 1.04 | 0.988 | 1.02 | 0.968 | 1.04 | 1.1 | 1.08 | 1.14 | 0.768 | 0.816 | 0.815 | 0.64 | 0.365 | 0.365 | 0.382 | 0.348 | 0.932 | 0.89 | 0.98 | 0.956 |
| BEN | 0.548 | 0.706 | 0.664 | 0.429 | 0.981 | 0.798 | 1.01 | 0.604 | 0.442 | 0.282 | 0.478 | 0.434 | 0.254 | 0.257 | 0.253 | 0.25 | 0.836 | 0.857 | 0.795 | 0.519 |
| NCI-H2347 | 0.648 | 0.575 | 0.697 | 0.383 | 1.08 | 1 | 1.01 | 0.987 | 0.39 | 0.507 | 0.472 | 0.266 | 0.323 | 0.453 | 0.54 | 0.376 | 0.835 | 0.877 | 0.914 | 0.648 |
| H3255 | 0.488 | 0.49 | 0.44 | 0.235 | 0.94 | 0.974 | 0.994 | 0.45 | 1.11 | 0.912 | 0.866 | 0.784 | 0.361 | 0.359 | 0.356 | 0.309 | 0.901 | 0.855 | 0.853 | 0.354 |
| NCI-H441 | 0.669 | 0.483 | 0.634 | 0.459 | 0.583 | 0.504 | 0.58 | 0.543 | 0.362 | 0.425 | 0.448 | 0.412 | 0.946 | 0.869 | 0.821 | 0.657 | 0.909 | 0.705 | 0.808 | 1.3 |
| NCI-H2228 | 0.451 | – | 0.229 | 0.297 | 0.821 | – | 0.818 | 0.496 | 0.104 | 0.185 | 0.167 | 0.109 | 0.308 | 0.236 | 0.284 | 0.326 | 0.472 | – | 0.402 | 0.333 |
| NCI-H1975 | 0.283 | 0.318 | 0.338 | 0.253 | 0.932 | 0.833 | 0.952 | 0.722 | 0.244 | 0.252 | 0.21 | 0.141 | 0.401 | 0.447 | 0.437 | 0.403 | 0.926 | 0.965 | 1.01 | 0.849 |
